Measurements taken from BindingDB's records for doi:10.3109/14756366.2011.621122 (Ondokuz Mayis University, 2012).

Tests used:
Test in all cases: CA Activity Assay
Settings in all cases: pH 7.4
[1] = molecular target: T1, Carbonic anhydrase 3 (Bos taurus, UniProt Q3SZX4)
T1 sequence (Q3SZX4 whole entry): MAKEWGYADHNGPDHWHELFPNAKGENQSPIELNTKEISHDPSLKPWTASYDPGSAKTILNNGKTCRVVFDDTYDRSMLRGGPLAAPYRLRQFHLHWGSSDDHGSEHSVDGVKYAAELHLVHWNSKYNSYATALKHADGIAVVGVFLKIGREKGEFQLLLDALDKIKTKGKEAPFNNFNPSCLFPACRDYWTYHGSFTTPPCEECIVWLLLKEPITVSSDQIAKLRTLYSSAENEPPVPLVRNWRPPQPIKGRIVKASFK

[2] = molecular target: Carbonic anhydrase 6 (Homo sapiens, UniProt P23280)
Sequence of Carbonic anhydrase 6 (P23280 whole entry): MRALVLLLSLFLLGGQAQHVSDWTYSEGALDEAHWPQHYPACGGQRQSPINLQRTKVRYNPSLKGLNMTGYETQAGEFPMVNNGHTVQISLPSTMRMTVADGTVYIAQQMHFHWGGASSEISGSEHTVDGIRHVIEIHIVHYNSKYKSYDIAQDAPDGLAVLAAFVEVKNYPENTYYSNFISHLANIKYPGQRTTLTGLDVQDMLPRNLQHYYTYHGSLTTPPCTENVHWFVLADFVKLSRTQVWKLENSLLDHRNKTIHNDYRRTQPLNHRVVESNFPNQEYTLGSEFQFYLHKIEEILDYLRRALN

[3] = molecular target: Carbonic anhydrase 2 (Homo sapiens, UniProt P00918)
[4] = molecular target: Carbonic anhydrase 1 (Homo sapiens, UniProt P00915)
Sequence of Carbonic anhydrase 1 (P00915 whole entry): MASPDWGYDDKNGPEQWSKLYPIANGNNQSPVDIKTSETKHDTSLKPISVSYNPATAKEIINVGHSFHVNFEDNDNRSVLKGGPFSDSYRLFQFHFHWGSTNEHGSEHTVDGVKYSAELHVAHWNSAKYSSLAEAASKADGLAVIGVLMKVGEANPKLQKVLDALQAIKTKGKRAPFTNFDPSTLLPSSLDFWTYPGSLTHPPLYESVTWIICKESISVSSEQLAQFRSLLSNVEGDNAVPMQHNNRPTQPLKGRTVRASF

Compound	Ki [1] [µM]	Ki [2] [µM]	Ki [3] [µM]	Ki [4] [µM]	IC50 [1] [µM]
c1ccc(-c2cc(OCCCN3CCCC3)nc(-c3ccccc3)n2)cc1					66.7
Oc1ccccc1					4.63
Nc1ccc(S(=O)(=O)Nc2ccccn2)cc1 [MLS000069725]	93.2	11.7	0.348	26.2	
Cc1ccc(NS(=O)(=O)c2ccc(C)cc2)cc1 [Carbonic anhydrase inhibitors (CAIs), 1]	2.43	24.3	1.03	50.1	
Cc1ccc(S(=O)(=O)Nc2ccccc2)cc1 [CA inhibitor, 2]	13.1	13.5	14.3	210	
Oc1ccccc1O [1,2-Dihydroxybenzene, XI]					5.79

The next lines start with results.

Ki [1] [µM]	Ki [2] [µM]	Ki [3] [µM]	Ki [4] [µM]	Compound	IC50 [1] [µM]
4.28				O[C@@H]1CCCC[C@H]1O [(1R,2R)-trans-1,2-cyclohexanediol]	
0.59	1.12	0.47	5.48	Cc1ccc(S(=O)(=O)N[C@@H]2[C@@H](O)[C@@H](O)CC[C@@H]2O)cc1 [Carbonic anhydrase inhibitors (CAIs), 5]	
1.75	3.78	0.82	9.34	Cc1ccc(S(=O)(=O)N[C@@H]2[C@@H](O)[C@H](O)CC[C@@H]2O)cc1 [Carbonic anhydrase inhibitors (CAIs), 6]	
57.4	275	21.7	379	Cc1ccc(S(=O)(=O)N2[C@@H]3C=CCC[C@@H]3OC2(C)C)cc1 [Carbonic anhydrase inhibitors (CAIs), 4]	
2.67	4.48	3.72	70.2	Cc1ccc(S(=O)(=O)N[C@@H]2C=CCC[C@@H]2O)cc1 [Carbonic anhydrase inhibitors (CAIs), 3]	
1.19	16.7	1.84	21.7	O[C@@H]1CCCC[C@@H]1O [Carbonic anhydrase inhibitors (CAIs), 7]	
